In patent US20260092071A1, “COMPOUNDS AND COMPOSITIONS AS SMARCA2/4 DEGRADERS AND USES THEREOF” (REGENTS OF THE UNIVERSITY OF MICHIGAN, priority 2022, published 2026):
Read-outs that look alike come from different tables or passages of the source.

How the values were obtained:
SMARCA4 = SMARCA4 (Homo sapiens, UniProt P51532); assay: HiBiT assay for protein degradation, Hela SMARCA4-HiBiT cells (A series); assay type: cell-based; design: fuse HiBiT to the carboxy terminus of SMARCA2 (Promega CS302365) or SMARCA4 (Promega CS3023225); host or cells: HeLa (CRISPR/Cas9 HiBiT knock-in); details: for DC50: read-out: SMARC A4 Hela HiBit DC50
Sequence of SMARCA4 (P51532 whole entry, the tested form may be a part): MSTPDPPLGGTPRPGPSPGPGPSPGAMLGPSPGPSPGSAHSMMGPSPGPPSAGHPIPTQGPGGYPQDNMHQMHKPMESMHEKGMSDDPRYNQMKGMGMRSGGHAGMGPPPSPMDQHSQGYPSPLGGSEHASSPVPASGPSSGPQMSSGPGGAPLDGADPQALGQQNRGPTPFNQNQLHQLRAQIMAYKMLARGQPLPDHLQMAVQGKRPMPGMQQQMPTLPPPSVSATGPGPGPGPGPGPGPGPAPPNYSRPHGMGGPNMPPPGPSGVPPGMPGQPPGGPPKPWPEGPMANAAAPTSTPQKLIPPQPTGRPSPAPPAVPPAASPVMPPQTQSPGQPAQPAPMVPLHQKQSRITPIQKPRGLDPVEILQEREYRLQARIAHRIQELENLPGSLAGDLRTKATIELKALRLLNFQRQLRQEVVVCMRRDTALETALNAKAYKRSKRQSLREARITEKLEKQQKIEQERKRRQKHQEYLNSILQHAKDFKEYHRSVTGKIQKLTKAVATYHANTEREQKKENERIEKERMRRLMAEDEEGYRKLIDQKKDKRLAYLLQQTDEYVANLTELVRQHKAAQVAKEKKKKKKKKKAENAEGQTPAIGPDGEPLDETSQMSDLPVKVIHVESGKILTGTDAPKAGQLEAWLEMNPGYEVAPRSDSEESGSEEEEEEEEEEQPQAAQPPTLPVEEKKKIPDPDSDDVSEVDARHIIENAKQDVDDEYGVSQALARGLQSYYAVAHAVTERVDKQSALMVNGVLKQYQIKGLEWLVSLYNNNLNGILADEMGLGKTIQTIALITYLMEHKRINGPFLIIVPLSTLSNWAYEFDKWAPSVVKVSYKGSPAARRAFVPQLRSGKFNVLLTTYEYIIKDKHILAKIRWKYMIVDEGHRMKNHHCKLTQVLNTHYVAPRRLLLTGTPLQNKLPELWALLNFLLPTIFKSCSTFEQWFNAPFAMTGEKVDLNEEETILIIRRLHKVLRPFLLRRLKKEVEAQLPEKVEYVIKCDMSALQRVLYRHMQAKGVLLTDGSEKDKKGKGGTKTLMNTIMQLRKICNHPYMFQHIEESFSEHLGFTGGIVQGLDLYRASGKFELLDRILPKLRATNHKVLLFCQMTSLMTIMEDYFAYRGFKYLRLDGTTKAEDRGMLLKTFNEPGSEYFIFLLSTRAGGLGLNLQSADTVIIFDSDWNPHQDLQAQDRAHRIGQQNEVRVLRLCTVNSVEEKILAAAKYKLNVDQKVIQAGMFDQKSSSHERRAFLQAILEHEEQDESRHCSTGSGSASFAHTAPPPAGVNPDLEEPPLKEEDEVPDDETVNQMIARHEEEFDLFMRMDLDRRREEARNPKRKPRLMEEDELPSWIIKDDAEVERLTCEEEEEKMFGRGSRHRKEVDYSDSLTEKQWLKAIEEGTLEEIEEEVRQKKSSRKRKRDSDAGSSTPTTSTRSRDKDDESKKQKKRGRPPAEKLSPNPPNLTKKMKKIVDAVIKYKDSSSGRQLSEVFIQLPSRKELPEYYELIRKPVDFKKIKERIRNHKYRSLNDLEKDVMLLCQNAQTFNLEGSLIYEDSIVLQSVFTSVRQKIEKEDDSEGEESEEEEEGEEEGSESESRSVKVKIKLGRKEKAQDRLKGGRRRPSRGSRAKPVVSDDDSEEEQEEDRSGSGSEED
Summary of the method: (§1)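 HeLa cells engineered by CRISPR/Cas9 to carry a HiBiT tag fused to the C-terminus of SMARCA4 (Promega CS3023225) were grown in DMEM supplemented with FBS and penicillin-streptomycin. After compound exposure, remaining SMARCA4 protein was quantified using the Nano-Glo® HiBiT Lytic Detection Assay (Promega N3050), and curves were fitted in GraphPad Prism.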

SMARCA2 = SMARCA2 (Homo sapiens, UniProt P51531); assay: HiBiT assay for protein degradation, Hela SMARCA2-HiBiT cells (A series); assay type: cell-based; design: Hela cells were genetically modified via CRISPR/Cas9 to fuse HiBiT to the carboxy terminus of SMARCA2; host or cells: HeLa (CRISPR/Cas9 HiBiT knock-in); details: for DC50: read-out: SMARC A2 Hela HiBit DC50; for Dmax: read-out: SMARC A2 Hela HiBit Dmax (%);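 as to SMARC A2 Hela HiBit Dmax (%): 24 h compound treatment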
Sequence of SMARCA2 (P51531 whole entry): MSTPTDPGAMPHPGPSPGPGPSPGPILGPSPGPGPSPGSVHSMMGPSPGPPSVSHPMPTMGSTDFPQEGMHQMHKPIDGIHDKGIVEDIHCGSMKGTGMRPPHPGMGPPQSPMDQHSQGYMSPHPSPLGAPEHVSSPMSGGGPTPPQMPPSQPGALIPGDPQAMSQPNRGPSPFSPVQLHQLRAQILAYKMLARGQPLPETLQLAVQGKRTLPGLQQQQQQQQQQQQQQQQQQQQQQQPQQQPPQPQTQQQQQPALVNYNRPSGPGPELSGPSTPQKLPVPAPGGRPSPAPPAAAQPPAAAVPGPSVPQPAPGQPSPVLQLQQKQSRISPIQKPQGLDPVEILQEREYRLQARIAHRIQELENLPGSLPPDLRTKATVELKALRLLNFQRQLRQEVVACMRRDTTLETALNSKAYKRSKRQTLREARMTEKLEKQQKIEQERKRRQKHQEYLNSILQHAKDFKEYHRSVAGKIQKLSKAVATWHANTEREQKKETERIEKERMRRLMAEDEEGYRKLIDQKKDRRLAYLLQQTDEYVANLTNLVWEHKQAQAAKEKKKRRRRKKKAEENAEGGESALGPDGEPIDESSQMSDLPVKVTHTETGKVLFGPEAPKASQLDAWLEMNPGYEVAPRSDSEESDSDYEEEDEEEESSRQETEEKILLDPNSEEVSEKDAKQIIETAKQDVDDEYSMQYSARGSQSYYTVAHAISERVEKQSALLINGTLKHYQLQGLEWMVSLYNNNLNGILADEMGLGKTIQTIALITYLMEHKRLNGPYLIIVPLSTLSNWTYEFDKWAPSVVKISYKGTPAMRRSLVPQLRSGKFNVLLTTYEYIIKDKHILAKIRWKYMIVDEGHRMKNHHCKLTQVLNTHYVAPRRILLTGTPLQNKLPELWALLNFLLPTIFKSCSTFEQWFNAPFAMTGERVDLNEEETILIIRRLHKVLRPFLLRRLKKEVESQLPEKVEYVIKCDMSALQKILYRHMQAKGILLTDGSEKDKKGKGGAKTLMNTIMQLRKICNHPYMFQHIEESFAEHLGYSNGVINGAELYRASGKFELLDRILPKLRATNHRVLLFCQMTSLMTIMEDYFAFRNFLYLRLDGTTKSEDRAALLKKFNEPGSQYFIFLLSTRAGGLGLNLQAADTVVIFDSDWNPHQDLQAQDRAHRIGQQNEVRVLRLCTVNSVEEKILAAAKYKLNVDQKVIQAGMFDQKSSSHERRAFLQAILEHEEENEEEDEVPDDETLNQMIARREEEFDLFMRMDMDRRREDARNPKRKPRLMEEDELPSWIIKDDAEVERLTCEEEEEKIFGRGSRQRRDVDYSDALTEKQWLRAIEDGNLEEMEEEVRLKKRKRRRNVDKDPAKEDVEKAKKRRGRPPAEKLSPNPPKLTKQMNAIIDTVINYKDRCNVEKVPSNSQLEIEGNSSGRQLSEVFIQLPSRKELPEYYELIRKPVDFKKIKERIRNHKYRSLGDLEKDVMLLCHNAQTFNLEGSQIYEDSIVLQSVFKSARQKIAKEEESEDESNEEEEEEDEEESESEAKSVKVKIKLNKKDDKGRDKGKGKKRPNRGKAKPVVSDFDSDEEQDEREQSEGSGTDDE
Summary of the method: as §1, with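 “SMARCA2” for “SMARCA4”, “CS302365)” for “CS3023225)”, “treatment,” for “compound exposure,”, “with” for “using”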

[1] = Hela SMARCA4-HiBiT cells, 24 hours treatment
[2] = Hela SMARCA4-HiBiT cells, 24 hours treatment, read-out: SMARC A4 Hela HiBit Dmax
[3] = Hela SMARCA2-HiBiT cells, 24 hours treatment
[4] = Hela SMARCA4-HiBiT cells, 24 hours treatment, read-out: SMARC A4 Hela HiBit Dmax(%)

Row | DC50 (SMARCA4; [1]) [nM] | Dmax (SMARCA4; [2]) [%] | DC50 (SMARCA2; [3]) [nM] | Dmax (SMARCA2; [3]) [%] | Dmax (SMARCA4; [4]) [%] | SMARC A4 Hela HiBit Dmax(%) (SMARCA4; [1]) | DC50 (SMARCA4) [nM] | SMARC A2 Hela HiBit Dmax (%) (SMARCA2; [3]) | DC50 (SMARCA2) [nM] | SMILES
1 | > 1000 | < 50 | < 10 | > 90 | – | – | – | – | – | Cc1ccncc1-c1ccc([C@H](CN2CCOCC2)NC(=O)[C@@H]2C[C@@H](O)CN2C(=O)[C@@H](n2cc([C@H]3CC[C@H](CN4CCC(c5ccc6c(c5)-n5c(nc(=O)c7c(Cl)cccc75)C65CCCCC5)CC4)CC3)nn2)C(C)(C)C)cc1 [Compound A175]
2 | > 1000 | < 50 | 100 to 1000 | 70 to 90 | – | – | – | – | – | Cc1ncsc1-c1ccc([C@H](CN2CCC(C(=O)O)CC2)NC(=O)[C@@H]2C[C@@H](O)CN2C(=O)[C@@H](n2cc([C@H]3CC[C@H](CN4CCC(c5ccc6c(c5)-n5c(nc(=O)c7c(Cl)cccc75)C65CCCCC5)CC4)CC3)nn2)C(C)(C)C)cc1 [Compound A156, 1-((R)-2-((2S,4R)-1-((S)-2-(4-((1r,4S)-4-((4-(4′-chloro-5′-oxo-5′H-spiro[cyclohexane-1,7′-indolo[1,2-a]quinazolin]-10′-yl)piperidin-1-yl)methyl)cyclohexyl)-1H-1,2,3-triazol-1-yl)-3,3-dimethylbutanoyl)-4-hydroxypyrrolidine-2-carboxamido)-2-(4-(4-methylthiazol-5-yl)phenyl)ethyl)piperidine-4-carboxylic acid]
3 | < 100 | – | < 100 | 70 to 90 | > 90 | – | – | – | – | Cc1ncsc1-c1ccc([C@H](CCCCCN2CCC(c3ccc4c(c3)C3(CCCCC3)c3nc(=O)c5c(Br)cccc5n3-4)CC2)NC(=O)[C@@H]2C[C@@H](O)CN2C(=O)[C@@H](NC(=O)C2(N(C)C)CC2)C(C)(C)C)cc1 [Compound A17, (2S,4R)—N—((S)-6-(4-(4′-bromo-5′-oxo-5′H-spiro[cyclohexane-1,7′-indolo[1,2-a]quinazolin]-9′-yl)piperidin-1-yl)-1-(4-(4-methylthiazol-5-yl)phenyl)hexyl)-1-((S)-2-(1-(dimethylamino)cyclopropane-1-carboxamido)-3,3-dimethylbutanoyl)-4-hydroxypyrrolidine-2-carboxamide]
4 | – | – | – | – | – | B (B (70-90% degradation)) | 100 to 500 | A (A (>90% degradation)) | < 100 | Cc1ncsc1-c1ccc([C@H](C)NC(=O)[C@@H]2C[C@@H](O)CN2C(=O)[C@@H](n2cc(C3(CN4CCC(c5ccc6c(c5)-n5c(nc(=O)c7c(Br)cccc75)C65CCCCC5)CC4)CC3)nn2)C(C)(C)C)cc1 [Compound A64, (2S,4R)-1-((S)-2-(4-(1-((4-(4′-bromo-5′-oxo-5′H-spiro[cyclohexane-1,7′-indolo[1,2-a]quinazolin]-10′-yl)piperidin-1-yl)methyl)cyclopropyl)-1H-1,2,3-triazol-1-yl)-3,3-dimethylbutanoyl)-4-hydroxy-N—((S)-1-(4-(4-methylthiazol-5-yl)phenyl)ethyl)pyrrolidine-2-carboxamide]
5 | 100 to 1000 | 50 to 69 | 10 to 100 | 70 to 90 | – | – | – | – | – | Cc1ncsc1-c1ccc([C@H](CC(=O)N2CCC(N3CCC(c4ccc5c(c4)-n4c(nc(=O)c6c(Cl)cccc64)C54CCCCC4)CC3)CC2)NC(=O)[C@@H]2C[C@@H](O)CN2C(=O)[C@@H](n2cc(C3CC3)nn2)C(C)(C)C)cc1 [Compound A143, (2S,4R)—N—((S)-3-(4-(4′-chloro-5′-oxo-5′H-spiro[cyclohexane-1,7′-indolo[1,2-a]quinazolin]-10′-yl)-[1,4′-bipiperidin]-1′-yl)-1-(4-(4-methylthiazol-5-yl)phenyl)-3-oxopropyl)-1-((S)-2-(4-cyclopropyl-1H-1,2,3-triazol-1-yl)-3,3-dimethylbutanoyl)-4-hydroxypyrrolidine-2-carboxamide]
6 | > 1000 | – | > 1000 | < 50 | 50 to 69 | – | – | – | – | Cc1ncsc1-c1ccc([C@H](C)NC(=O)[C@@H]2C[C@@H](O)CN2C(=O)[C@@H](n2cc([C@H]3CC[C@H](CN4CCC(c5ncc6c(n5)-n5c(nc(=O)c7c(Br)cccc75)C65CCCCC5)CC4)CC3)nn2)C(C)(C)C)cc1 [Compound A31, (2S,4R)-1-((S)-2-(4-((1r,4S)-4-((4-(4′-bromo-5′-oxo-5′H-spiro[cyclohexane-1,7′-pyrimido[5′,4′: 4,5]pyrrolo[1,2-a]quinazolin]-10′-yl)piperidin-1-yl)methyl)cyclohexyl)-1H-1,2,3-triazol-1-yl)-3,3-dimethylbutanoyl)-4-hydroxy-N—((S)-1-(4-(4-methylthiazol-5-yl)phenyl)ethyl)pyrrolidine-2-carboxamide]
7 | > 1000 | < 50 | < 10 | > 90 | – | – | – | – | – | Cc1ncsc1-c1ccc([C@H](C)NC(=O)[C@@H]2C[C@@H](O)CN2C(=O)[C@H](C2CCN(C(=O)[C@H]3CC[C@H](CN4CCC(c5ccc6c(c5)-n5c(nc(=O)c7c(Br)cccc75)C65CCCCC5)CC4)CC3)CC2)n2cc(C3CC3)nn2)cc1 [Compound A132, (2S,4R)-1-((S)-2-(1-((1r,4S)-4-((4-(4′-bromo-5′-oxo-5′H-spiro[cyclohexane-1,7′-indolo[1,2-a]quinazolin]-10′-yl)piperidin-1-yl)methyl)cyclohexane-1-carbonyl)piperidin-4-yl)-2-(4-cyclopropyl-1H-1,2,3-triazol-1-yl)acetyl)-4-hydroxy-N—((S)-1-(4-(4-methylthiazol-5-yl)phenyl)ethyl)pyrrolidine-2-carboxamide]
8 | 10 to 100 | 70 to 90 | < 10 | > 90 | – | – | – | – | – | Cc1ncsc1-c1ccc([C@H](CC(=O)N2CCC3(CCC(N4CCC(c5ccc6c(c5)-n5c(nc(=O)c7c(Br)cccc75)C65CCCCC5)CC4)CC3)CC2)NC(=O)[C@@H]2C[C@@H](O)CN2C(=O)[C@@H](n2cc(C3CC3)nn2)C(C)(C)C)cc1 [Compound A144, (2S,4R)—N—((S)-3-(9-(4-(4′-bromo-5′-oxo-5′H-spiro[cyclohexane-1,7′-indolo[1,2-a]quinazolin]-10′-yl)piperidin-1-yl)-3-azaspiro[5.5]undecan-3-yl)-1-(4-(4-methylthiazol-5-yl)phenyl)-3-oxopropyl)-1-((S)-2-(4-cyclopropyl-1H-1,2,3-triazol-1-yl)-3,3-dimethylbutanoyl)-4-hydroxypyrrolidine-2-carboxamide]
9 | > 1000 | < 50 | < 10 | > 90 | – | – | – | – | – | Cc1ncsc1-c1ccc([C@H](CN2CC(C)(F)C2)NC(=O)[C@@H]2C[C@@H](O)CN2C(=O)[C@@H](n2cc([C@H]3CC[C@H](CN4CCC(c5ccc6c(c5)-n5c(nc(=O)c7c(Cl)cccc75)C6(C)C)CC4)CC3)nn2)C(C)(C)C)cc1 [Compound A93, (2S,4R)-1-((S)-2-(4-((1r,4S)-4-((4-(4-chloro-7,7-dimethyl-5-oxo-5,7-dihydroindolo[1,2-a]quinazolin-10-yl)piperidin-1-yl)methyl)cyclohexyl)-1H-1,2,3-triazol-1-yl)-3,3-dimethylbutanoyl)-N—((R)-2-(3-fluoro-3-methylazetidin-1-yl)-1-(4-(4-methylthiazol-5-yl)phenyl)ethyl)-4-hydroxypyrrolidine-2-carboxamide]
